Data published in patent publication US20220274980A1, “PHARMACOLOGICAL INHIBITORS OF THE ENL YEATS DOMAIN” (priority 2019, published 2022).
Where two headings read alike, the source gives them in different places.

Experiments:
[1] = molecular target: T1, ENL YEATS domain (association with H3K27cr) (Homo sapiens, UniProt Q03111); test: biochemical
T1 sequence (Q03111 1-148): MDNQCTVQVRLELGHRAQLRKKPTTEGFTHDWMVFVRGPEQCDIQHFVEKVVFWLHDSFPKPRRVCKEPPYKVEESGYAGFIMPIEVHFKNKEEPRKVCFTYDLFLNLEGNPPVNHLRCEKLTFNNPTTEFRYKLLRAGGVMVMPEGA
Protocol: (§1) Protein Production. Double stranded DNA fragments encoding the protein sequence of ENL YEATS(1-148) were synthesized (IDT DNA) for assembly-based cloning into a modified expression vector backbone derived from pET21a (Novagen). The protein was fused to a StrepII-SUMO and 6×His tag on the amino and carboxy terminus, respectively. Transformed BL21(DE3) cells (New England Biolabs) were grown at 37° C. in 2×YT growth medium to an OD600 of 0.6. Protein expression was induced at 25° C. with the addition of isopropyl-β-D-thiogalactopyranoside (IPTG) to a final concentration of 0.4 mM. The culture was harvested by centrifugation following a 20-hour incubation and subsequently purified by immobilized metal affinity chromatography. Cells were resuspended 50 mM Tris-HCl pH 8.0, 300 mM NaCl, 10% glycerol, 10 mM imidazole, 1 mM DTT containing Complete EDTA-free protease inhibitor (Roche) and lysed by two passes through a MicroFluidizer at 10,000 psi. The lysate was clarified by centrifugation at 16,000 rpm for 30 minutes at 4° C. The supernatant was passed over NiNTA agarose (QIAGEN) and the protein was eluted in 50 mM Tris-HCl pH 8.0, 300 mM NaCl, 10% glycerol, 250 mM imidazole, 1 mM DTT. Fractions containing the ENL YEATS(1-148) fusion protein were buffer exchanged into 100 mM Tris-HCl pH 8.0, 150 mM NaCl, 1 mM EDTA, 1 mM DTT using PD10 desalting columns (GE Life Sciences). Ulp1 protease was added to cleave the StrepII-SUMO fusion and the reaction mixture was incubated overnight at 4° C. The cleavage reaction mixture was loaded onto a StrepTrap column (GE Life Sciences) and ENL YEATS(1-148) was recovered in the flow through. BRD4 BD1 was purchased from Cayman (Cat. No. 11720).
(§2) Homogenous time-resolved FRET (HTRF) histone-binding assays. Both HTRF assays were performed by combining recombinant protein and synthetic histone peptide in assay buffer (25 mM HEPES pH 7, 20 mM NaCl, 0.2% Pluronic F-127, and 0.05% BSA) with 1 nM LanthaScreen Eu-anti-His Tag antibody (ThermoFisher, Cat. No, PV5597) and 8.9 nM SureLight allophycocyanin-streptavidin (Perkin Elmer, APC-SA, Cat. No. CR130-100). ENL YEATS was used at 5 nM and BRD4 BD1 was used at 10 nM. ENL assays were performed with H3(13-32)K27cr (13.3 and 100 nM, respectively), custom synthesized at ABclonal (N-terminal biotin, C-terminal amide); BRD4 BD1 assay was performed with 13.3 nM tetra-acetylated H4 (BioVision, Cat. No. 7144-01). Once all reagents were combined (with or without peptide), 10 μL was dispensed per well into black 384-well low-volume plates (Corning, Cat. No. 3821) and drug was added by pin tool transfer (Biomek FX). Assays were incubated for 2 or more hours before measurement of HTRF signal on a PHERAstar plate reader (BMG Labtech; simultaneous dual emission; excitation=337 nm, emission 1=665 nm, emission 2=620 nm). HTRF signal (ratio of emission 1 to emission 2) from vehicle-treated wells (maximum signal) and no-peptide-control wells (minimum signal) were used to calculate percent inhibition for drug-treated wells.

BRD4 bromodomain 1 (BD1) = molecular target: T2, BRD4 bromodomain 1 (BD1) (Homo sapiens, UniProt O60885); test: BRD4 (BD1)-H4 tetra-acetylated HTRF histone-binding assay
T2 construct: Selectivity against BRD4 bromodomain 1 (BD1), measured by HTRF; His; purchased Cayman 11720
Protocol: as §1, §2

[2] = ENL (YEATS)-H3K27cr HTRF (IC50, μM), Table 1
[3] = ENL (YEATS)-H3K27cr HTRF (IC50, μM), Table 2
[4] = read-out: ENL (YEATS)-H3K27cr HTRF (IC50), Table 1

Row | SMILES | IC50 [1, 2] [µM] | IC50 [1, 3] [µM] | IC50 (BRD4 bromodomain 1 (BD1); Table 1) [µM] | IC50 (BRD4 bromodomain 1 (BD1); Table 2) [µM] | IC50 ([1]; read-out: ENL (YEATS)-H3K27cr HTRF (IC50), Table 2) [µM] | IC50 [1, 4] [µM]
1 | CC(C)NC(=O)c1ccc2nc(-c3cccc(NS(=O)(=O)NCCC(N)=O)c3)cn2c1 [Compound 56] | 0.52 | 0.52 | > 50 | > 50 |  | 
2 | CC(C)NC(=O)c1ccc2nc(-c3cccc(NS(=O)(=O)NCCc4ccc(N)cc4)c3)cn2c1 [Compound 58] | 0.32 | 0.32 | > 50 | > 50 |  | 
3 | CC(C)NC(=O)c1ccc2nc(-c3cccc(NS(=O)(=O)NC[C@H]4CC[C@H](C(=O)O)CC4)c3)cn2c1 [Compound 65] | 0.32 | 0.32 | > 50 | > 50 |  | 
4 | CC(C)NC(=O)c1ccc2nc(-c3cccc(NS(=O)(=O)NCCc4cccs4)c3)cn2c1 [Compound 49] | 1.36 | 1.36 | > 50 | > 50 |  | 
5 | CC(C)NC(=O)c1ccc2nc(-c3cccc(NS(=O)(=O)NCCCCCCC(=O)O)c3)cn2c1 [Compound 61] | 0.36 | 0.36 | > 50 | > 50 |  | 
6 | CC(C)NC(=O)c1ccc2nc(-c3cccc(NS(=O)(=O)NCCc4ccc(S(N)(=O)=O)cc4)c3)cn2c1 [Compound 48] | 0.51 | 0.51 | > 50 | > 50 |  | 
7 | CC(C)NC(=O)c1ccc2nc(-c3cccc(NS(=O)(=O)NCCCN4CCCC4=O)c3)cn2c1 [Compound 53] | 0.88 | 0.88 | > 50 | > 50 |  | 
8 | CC(C)NC(=O)c1ccc2nc(-c3cccc(NS(=O)(=O)NCCO)c3)cn2c1 [Compound 57] | 0.43 | 0.43 | > 50 | > 50 |  | 
9 | CC(C)NC(=O)c1ccc2nc(-c3cccc(NS(=O)(=O)NCCCCO)c3)cn2c1 [Compound 62] | 0.3 | 0.3 | > 50 | > 50 |  | 
10 | O=C(NC1CC1)c1ccc2nc(-c3ccccc3)cn2c1 [Compound 33] | 9 | 9 |  |  |  | 
11 | COc1ccc(CNS(=O)(=O)Nc2cccc(-c3cn4cc(C(=O)NC(C)C)ccc4n3)c2)c(OC)c1 [Compound 50] | 0.52 | 0.52 | > 50 | > 50 |  | 
12 | CC(C)NC(=O)c1ccc2nc(-c3cccc(NS(=O)(=O)NCCCn4ccnc4)c3)cn2c1 [Compound 67] | 0.33 | 0.33 | > 50 | > 50 |  | 
13 | CC(C)NC(=O)c1ccc2nc(-c3ccccn3)cn2c1 [Compound 91] | 14.8 | 14.8 |  |  |  | 
14 | CC(C)NC(=O)c1ccc2nc(-c3ccccc3)cn2c1 [Compound 1] | 4 | 4 | > 50 | > 50 |  | 
15 | CC(C)NC(=O)c1ccc2nc(-c3cccc(NS(=O)(=O)NCc4ccc(O)cc4)c3)cn2c1 [Compound 47] | 0.37 | 0.37 | > 50 | > 50 |  | 
16 | CC(C)NC(=O)c1ccc2nc(-c3ccc(N=S(=O)(F)F)cc3)cn2c1 [Compound 41, (4-(6-(isopropylcarbamoyl)imidazo[1,2-a]pyridin-2-yl)phenyl)sulfurimidoyl difluoride] |  |  | > 50 | > 50 | 13 | 
17 | CC(C)NC(=O)c1ccc2nc(-c3cccc(NS(=O)(=O)NCCCCO)c3)cn2c1 [Compound 43] | 0.47 | 0.47 |  |  |  | 
18 | Cc1ccc(-c2cn3cc(C(=O)NC(C)c4cccnc4)ccc3n2)cc1 (centres unmarked) [Compound 35] | 10 | 10 |  |  |  | 
19 | CC(C)NC(=O)c1ccc2nc(-c3ccc(CN)cc3)cn2c1 [Compound 92] | 3.72 | 3.72 |  |  |  | 
20 | O=C(NC1C2CC1C2)c1ccc2nc(-c3ccccc3)cn2c1 (centres unmarked) [Compound 125] |  |  |  |  |  | > 50

Row | SMILES | IC50 [1, 2] [µM] | IC50 [1, 3] [µM] | IC50 (BRD4 bromodomain 1 (BD1); Table 1) [µM] | IC50 (BRD4 bromodomain 1 (BD1); Table 2) [µM] | IC50 ([1]; read-out: ENL (YEATS)-H3K27cr HTRF (IC50), Table 2) [µM] | IC50 [1, 4] [µM]
21 | CC(C)NC(=O)c1ccc2nc(-c3cccc(NS(=O)(=O)NCCC(=O)O)c3)cn2c1 [Compound 66] | 0.63 | 0.63 | > 50 | > 50 |  | 
22 | Cc1cc(-c2cn3cc(C(=O)NC(C)C)ccc3n2)ccn1 [Compound 88] | 7.05 | 7.05 |  |  |  | 
23 | COC(=O)[C@@H](Cc1c[nH]c2ccccc12)NS(=O)(=O)Nc1cccc(-c2cn3cc(C(=O)NC(C)C)ccc3n2)c1 [Compound 54] | 0.87 | 0.87 | > 50 | > 50 |  | 
24 | CNS(=O)(=O)Nc1cccc(-c2cn3cc(C(=O)NC(C)C)ccc3n2)c1 [Compound 52] | 0.39 | 0.39 | > 50 | > 50 |  | 
25 | CC(C)NC(=O)c1ccc2nc(-c3cccc(NS(=O)(=O)NCCCCCCCC(=O)O)c3)cn2c1 [Compound 63] | 0.46 | 0.46 | > 50 | > 50 |  | 
26 | CC(C)NC(=O)c1ccc2nc(-c3cccc(NS(=O)(=O)NCCCO)c3)cn2c1 [Compound 44] | 0.56 | 0.56 | > 50 | > 50 |  | 
27 | O=C(NC1CCC(O)CC1)c1ccc2nc(-c3ccc(F)cc3)cn2c1 (centres unmarked) [Compound 32] | 7 | 7 |  |  |  | 
28 | CC(C)NC(=O)c1ccc2nc(-c3cccc(NS(=O)(=O)NCCOCCO)c3)cn2c1 [Compound 42] | 0.55 | 0.55 | > 50 | > 50 |  | 
29 | O=C(NCC1CC1)c1ccc2nc(-c3ccccc3)cn2c1 [Compound 29] | 6 | 6 |  |  |  | 
30 | CC(C)NC(=O)c1ccc2nc(-c3cccc(N=S(=O)(F)F)c3)cn2c1 [Compound 40, (3-(6-(isopropylcarbamoyl)imidazo[1,2-a]pyridin-2-yl)phenyl)sulfurimidoyl difluoride] |  |  | > 50 | > 50 |  | 3.6
31 | COC(=O)[C@H]1CCCN1S(=O)(F)=Nc1cccc(-c2cn3cc(C(=O)NC(C)C)ccc3n2)c1 (some centres unmarked) [Compound 55] | 0.95 | 0.95 | > 50 | > 50 |  | 
32 | CC(C)NC(=O)c1ccc2nc(-c3cccc(N=S(=O)(F)N4CCC[C@@H]4C(=O)O)c3)cn2c1 (some centres unmarked) [Compound 68] | 0.61 | 0.61 | > 50 | > 50 |  | 
33 | CC(C)NC(=O)c1ccc2nc(-c3ccc([N+](=O)[O-])cc3)cn2c1 [Compound 37] | 2.8 | 2.8 | > 50 | > 50 |  | 
34 | CC(C)NC(=O)c1ccc2nc(-c3cccc(NS(=O)(=O)NCCCN4CCCC4)c3)cn2c1 [Compound 64] | 0.34 | 0.34 | > 50 | > 50 |  | 
35 | CCc1ccc(-c2cn3cc(C(=O)NC4CC4)ccc3n2)cc1 [Compound 28] | 5 | 5 |  |  |  | 
36 | CC(C)NC(=O)c1ccc2nc(Cn3ccnc3)cn2c1 [Compound 90] | 26.6 | 26.6 |  |  |  | 
37 | CC(NC(=O)c1ccc2nc(-c3ccccc3)cn2c1)c1ccccn1 (centres unmarked) [Compound 30] | 6 | 6 |  |  |  | 
38 | CC(C)NC(=O)c1ccc2nc(-c3ccccc3C#N)cn2c1 [Compound 89] | 16.7 | 16.7 |  |  |  | 
39 | O=C(NC1CCC(O)CC1)c1ccc2nc(-c3ccccc3)cn2c1 (centres unmarked) [Compound 31] | 7 | 7 |  |  |  | 
